Patent publication US20160045442A1, “STABLE PHARMACEUTICAL COMPOSITIONS OF MESALAMINE” (CADILA HEALTHCARE LIMITED, priority 2014, published 2016)

Assay: Bulk density and tapped density of mesalamine powder (USP Test 616)
Type: physicochemical
Conditions: mesalamine used to prepare the composition as per Example 3
Source text: Important physicochemical characteristics of powders are the density properties such as bulk and tapped density, weight variation and flow properties such as angle of repose. Bulk density is the undisturbed packing density of that substance and tapped density relates to the packing density after tapping a bed of substance until no change in the packing density is seen. Bulk density and tapped density, can be determined using compendial bulk density apparatus, such as the method given in Test 616 “Bulk Density and Tapped Density,” United States Pharmacopeia 29, United States Pharmacopeial Convention, Inc., Rockville, Md., 2005 (“USP”).

bulk density: 0.483 g/mL
tapped density: 0.694 g/mL
Structure (SMILES): Nc1ccc(O)c(C(=O)O)c1 [Mesalamine, mesalamine]
